From patent publication US6875746B1, “Anticancer anthraquinones and method of use thereof” (Board of Trustees of Michigan State University, priority 2002, dated 2005)
≈ marks a conversion by molar mass, not a printed value. Entries after “also recorded” stand apart in the source; their conditions may differ. Where two headings read alike, the source gives them in different places.

Experiments:
MCF-7 (breast) = assay: cancer cell growth inhibition assay (sulforhodamine B), MCF-7; type: cell-based; conditions: Homo sapiens, MCF7, read-out: GI50 ± SE, MCF-7 (breast)
Method: (§1) The compounds were tested for their activity against breast, central nervous system (CNS), colon, and lung human tumor cell lines. The breast (MCF-7), CNS(SF-268), and lung (NCI-H460) cultures were purchased from the National Cancer Institute (Bethesda, Md.) while the colon culture (HCT-116) was purchased from the American Type Culture Collection (Arlington, Va.). All cell lines were maintained in a humidified chamber at 37° C. with 5% CO2 in RPMI-1640 medium supplemented with 10% fetal bovine serum, penicillin (1 unit/100 mL), and streptomycin (1 μg/100 mL). All cell lines were sub-cultured according to their individual growth profiles in order to ensure exponential growth throughout the experiments. Breast (10,000 cells/well), CNS (15,000 cells/well), colon (7,500 cells/well), and lung (7,500 cells/well) cancer cells were aliquoted (100 μL) into 96-well plates and allowed to grow for 24 hours before the addition of the test compounds to the media. The compounds were dissolved in DMSO and diluted in sterile media as necessary to obtain the appropriate concentration. […] Test compounds, standards, and DMSO control were incubated for 48 hours, after which the assay was terminated via the addition of cold trichloroacetic acid. The plates were incubated for one hour at 4° C., washed with deionized water (five times), and air-dried. A 100 μL aliquot of 0.4% sulforhodamine B stain in 1% acetic acid was added to each well and the plates were incubated for 30 minutes at room temperature. Following incubation, the wells were rinsed with 1% acetic acid (five times) and the bound stain was dissolved in 100 μL of 10 mM TRIZMA base. The plates were shaken for five minutes on a gyrorotary shaker after which the absorbance of each well was recorded with an automated microplate reader (model EL800, Bio-Tek Instruments, Inc., Winooski, Vt.) at 515 nm. Three independent experiments were performed in triplicate using at least five drug concentrations inclusive of the 50% growth inhibitory concentration. Results are expressed as the concentration of compound required to inhibit cellular growth 50% (GI50) ±SE.

NCI-H460 (lung) = assay: cancer cell growth inhibition assay (sulforhodamine B), NCI-H460; type: cell-based; conditions: Homo sapiens, read-out: GI50 ± SE, NCI-H460 (lung)
Method: as §1

HCT-116 (colon) = assay: cancer cell growth inhibition assay (sulforhodamine B), HCT-116; type: cell-based; conditions: Homo sapiens, read-out: GI50 ± SE, HCT-116 (colon)
Method: as §1

SF-268 (CNS) = assay: cancer cell growth inhibition assay (sulforhodamine B), SF-268; type: cell-based; conditions: Homo sapiens, read-out: GI50 ± SE, SF-268 (CNS)
Method: as §1

[1] = test system: colon (HT-29) tumor cell line; conditions: Li and McLaughlin, J. Nat. Prod. 52: 660-662 (1989); cited from earlier work
[2] = test system: lung (A-549) tumor cell line; conditions: Li and McLaughlin, J. Nat. Prod. 52: 660-662 (1989); cited from earlier work
[3] = test system: breast (MCF-7), CNS (SF-268), colon (HCT-116) and lung (NCI-H460) human tumor cell lines; assay: cancer cell growth inhibition assay, statements on the four cell lines together; type: cell-based; conditions: MCF-7, SF-268, HCT-116, NCI-H460
Method: as §1, with “Results are expressed as the concentration of compound required to inhibit cellular growth 50% (GI50) ±SE.” left out

[4] = test system: HCT 116 human colon carcinoma cells; assay: MTT cell viability assay, HCT 116; type: cell-based; conditions: at GI50 concentration, 48 hours, FIG. 4
Method: (§2) In this example, compounds 1, 1a, 2, 2a, 3, 4, 6, and 8 were tested for cell toxicity using an 3-[4,5-dimethylthiazol-2-yl]-2,5-diphenyltetrazolium bromide (MTT) cell viability assay. The assay monitors the conversion of MTT to the dye, formazan, by viable cells. The formazan crystals form a precipitate which is dissolved in DMSO and analyzed by spectroscopy. MTT is not converted to formazan by dead cells. Therefore, the amount of dye detected is inversely related to the toxicity of the compound being tested.
(§3) The cancer cells used were HCT 116 (colon carcinoma, human, batch # F-11276), SF-268 (CNS, glioblastoma, human, 0503138), NCI-H460 (lung, large cell carcinoma, human, 503473), and MCF-7 (breast, mammary adenocarcinoma, human, 0501975) were procured from NCI, NIH.
(§4) The cells were grown in RPMI 1640 media supplemented with 10% fetal bovine serum and maintained at 37° C. in a humidified atmosphere of 5% CO2. Cells were seeded in 96 well plates at a density of 2000 cells per well. […] To each well, 200 μL of DMSO was added immediately, shaken for 5 min, and optical density of each well was recorded at 570 nm using Universal Microplate Reader. […]
(§5) The average optical densities of three wells for each sample tested and of DMSO control were calculated. The average optical densities of samples and of DMSO control from the replicates were then calculated. […]

[5] = test system: SF-268 human CNS glioblastoma cells; assay: MTT cell viability assay, SF-268; type: cell-based; conditions: at GI50 concentration, 48 hours, FIG. 5; compared with 8, 4, 6 and mixture 1a and 2a
Method: as §2, §3, §4, §5

[6] = test system: nasal (KBMRI) tumor cell line; conditions: Li and McLaughlin, J. Nat. Prod. 52: 660-662 (1989); cited from earlier work
[7] = test system: NCI-H460 human large cell carcinoma cells; assay: MTT cell viability assay, NCI-H460; type: cell-based; conditions: at GI50 concentration, 48 hours, FIG. 6
Method: as §2, §3, §4, §5

[8] = adriamycin values expressed in μM (footnote a), 48 hours
[9] = 48 hours incubation, sulforhodamine B stain

GI50 (MCF-7 (breast); [8])	GI50 (NCI-H460 (lung); [8])	GI50 (HCT-116 (colon); [8])	GI50 (SF-268 (CNS); [8])	GI50 (MCF-7 (breast); [9])	GI50 (NCI-H460 (lung); [9])	GI50 (HCT-116 (colon); [9])	GI50 (SF-268 (CNS); [9])	Structure (SMILES)	ED50, colon (HT-29) [1]	ED50, lung (A-549) [2]	activity against all four cancer cell lines (in words) [3]	toxicity in MTT assay, HCT 116 (Colon cancer) [4]	toxicity in MTT assay, SF-268 (CNS cancer) [5]	ED50, nasal (KBMRI) [6]	toxicity in MTT assay, NCI H460 (Lung cancer) [7]
1.7 ± 0.2 µM	1.7 ± 0.4 µM	2.1 ± 0.6 µM	1.9 ± 0.7 µM	–	–	–	–	COc1cccc2c1C(=O)c1c(O)c3c(c(O)c1C2=O)C[C@@](O)(C(=O)CO)C[C@@H]3O[C@H]1C[C@H](N)[C@H](O)[C@H](C)O1 [adriamycin, reference compound]	–	–	–	–	–	–	–
–	–	–	–	6.5 ± 1.2 µg/mL	6.3 ± 0.8 µg/mL	6.3 ± 0.8 µg/mL	2.4 ± 1.8 µg/mL	Cc1cc2c(c(O)c1O)C(=O)c1c(O)cccc1C2=O [compound 3, 1,2,8-trihydroxy-3-methyl anthraquinone]	2.8 µg/mL (≈ 10.4 µM)	3.1 µg/mL (≈ 11.5 µM)	consistent activity	higher toxicity than the rest of the anthraquinones	higher toxicity	5.7 µg/mL (≈ 21.1 µM)	–
–	–	–	–	2.8 ± 0.3 µg/mL	7.3 ± 0.7 µg/mL	5 ± 0.3 µg/mL	3.8 ± 0.7 µg/mL	O=C1c2cccc(O)c2C(=O)c2c1cc(CO)c(O)c2O [compound 6, 1,2,8-trihydroxy-3-hydroxymethyl anthraquinone]	–	–	consistent activity; also recorded: concentrations similar to that of compound 3	–	–	–	–
–	–	–	–	17.2 ± 0.8 µg/mL	15.4 ± 1.7 µg/mL	21.1 ± 1.8 µg/mL	16.3 ± 1.8 µg/mL	O=C(O)c1cc(O)c2c(c1)C(=O)c1cccc(O)c1C2=O [compound 8, 1,8-dihydroxy-3-carboxy anthraquinone]	–	–	moderate activity	–	–	–	lest toxic
